According to patent publication US11078198B2 (BRISTOL-MYERS SQUIBB COMPANY, priority 2017, dated 2021):

Target: T1, human FXR (Homo sapiens, UniProt Q96RI1)
T1 construct: expressed in transfected cells; host or cells: HEK293 cells stably carrying a 5xGal4-response-element firefly luciferase reporter, transiently transfected with pcDNA3.1-Gal4-FXR
T1 sequence (Q96RI1 262-486 limits assumed): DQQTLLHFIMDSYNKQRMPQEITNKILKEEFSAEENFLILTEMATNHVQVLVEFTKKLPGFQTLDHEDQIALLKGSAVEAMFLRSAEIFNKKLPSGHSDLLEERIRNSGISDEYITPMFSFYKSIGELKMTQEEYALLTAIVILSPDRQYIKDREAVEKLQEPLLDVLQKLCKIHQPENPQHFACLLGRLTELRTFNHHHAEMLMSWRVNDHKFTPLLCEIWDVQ
Assay: transient human FXR/Gal4-luciferase reporter assay
Assay type: cell-based
Details: Gal4-hFXR transfected HEK293 reporter cells; relative to 8 μM GW-4064
Method in brief: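 HEK293 cells stably carrying a 5×Gal4-response-element firefly luciferase reporter, transiently transfected overnight with a CMV-driven Gal4 DNA-binding domain/human FXR ligand-binding domain fusion.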

| EC50 [µM] | SMILES |
| --- | --- |
| 1.36 | O=C(O)c1cc2ccc(N3CCC4(C=C(c5c(-c6ccncc6Cl)noc5C5CC5)C4)CC3)cc2nn1 [Example 80, 7-(2-(3-(3-Chloropyridin-4-yl)-5-cyclopropylisoxazol-4-yl)-7-azaspiro[3.5]non-1-en-7-yl)cinnoline-3-carboxylic acid] |
| 1.08 | O=C(O)c1ccc(N2CCC3(C=C(c4c(C(F)F)cnn4-c4ccccc4OC(F)(F)F)C3)CC2)nc1 [Example 218, 6-(2-(4-(Difluoromethyl)-1-(2-(trifluoromethoxy)phenyl)-1H-pyrazol-5-yl)-7-azaspiro[3.5]non-1-en-7-yl)nicotinic acid] |
| 4.3 | O=C(O)c1ccc(N2CC3(C=C(c4c(-c5ccccc5C(F)(F)F)noc4C4CC4)C3)C2)nc1 [Example 35, 6-(6-(5-cyclopropyl-3-(2-(trifluoromethyl)phenyl)isoxazol-4-yl)-2-azaspiro[3.3]hept-5-en-2-yl)nicotinic acid] |
| 0.024 | Cn1cc(C(=O)O)c2ccc(N3CCC4(C=C(c5c(-c6c(Cl)cccc6Cl)noc5C5CC5)C4)CC3)nc21 [Example 7, 6-(2-(5-Cyclopropyl-3-(2,6-dichlorophenyl)isoxazol-4-yl)-7-azaspiro[3.5]non-1-en-7-yl)-1-methyl-1H-pyrrolo[2,3-b]pyridine-3-carboxylic acid] |
| 0.445 | C[Si](C)(C)CCOCn1cc(C(=O)O)c2ccc(N3CCC4(C=C(c5c(-c6c(Cl)cccc6Cl)noc5C5CC5)C4)CC3)cc21 [Example 131, 6-(2-(5-Cyclopropyl-3-(2,6-dichlorophenyl)isoxazol-4-yl)-7-azaspiro[3.5]non-1-en-7-yl)-1-((2-(trimethylsilyl)ethoxy)methyl)-1H-indole-3-carboxylic acid] |
| 0.031 | CCOc1cc(C(=O)O)nc2ccc(N3CCC4(C=C(c5c(-c6c(Cl)cncc6Cl)noc5C5CC5)C4)CC3)cc12 [Example 107, 6-(2-(5-Cyclopropyl-3-(3,5-dichloropyridin-4-yl)isoxazol-4-yl)-7-azaspiro[3.5]non-1-en-7-yl)-4-ethoxyquinoline-2-carboxylic acid] |
| 0.195 | O=C(O)c1cc(C(F)(F)F)c2cc(N3CCC4(C=C(c5c(-c6cnccc6C(F)(F)F)noc5C5CC5)C4)CC3)ccc2n1 [Example 90, 6-(2-(5-Cyclopropyl-3-(4-(trifluoromethyl)pyridin-3-yl)isoxazol-4-yl)-7-azaspiro[3.5]non-1-en-7-yl)-4-(trifluoromethyl)quinoline-2-carboxylic acid] |
| 0.255 | CS(=O)(=O)NC(=O)c1ccc2cc(N3CCC4(C=C(c5c(-c6c(Cl)cccc6Cl)noc5C5CC5)C4)CC3)ccc2n1 [Example 194, 6-(2-(5-Cyclopropyl-3-(2,6-dichlorophenyl)isoxazol-4-yl)-7-azaspiro[3.5]non-1-en-7-yl)-N-(methylsulfonyl)quinoline-2-carboxamide] |
| 0.017 | O=C(O)c1ccc2nc(N3CCC4(C=C(c5c(-c6c(Cl)cccc6Cl)noc5C5CC5)C4)CC3)sc2c1 [Example 24, 2-(2-(5-Cyclopropyl-3-(2,6-dichlorophenyl)isoxazol-4-yl)-7-azaspiro[3.5]non-1-en-7-yl)benzo[d]thiazole-6-carboxylic acid] |
| 4.8 | O=C(O)c1cc(F)c2nc(N3CCC4(CC3)CC(O)(c3c(-c5c(Cl)cccc5Cl)noc3C3CC3)C4)sc2c1 [Example 33, 2-(2-(5-Cyclopropyl-3-(2,6-dichlorophenyl)isoxazol-4-yl)-2-hydroxy-7-azaspiro[3.5]nonan-7-yl)-4-fluorobenzo[d]thiazole-6-carboxylic acid] |
| 1 | O=C(O)c1cc(F)c2nc(N3CCC4(CC3)COC(c3c(-c5ccccc5OC(F)(F)F)noc3C3CC3)O4)sc2c1 (stereo not drawn) [Example 42, 2-(2-(5-cyclopropyl-3-(2-(trifluoromethoxy)phenyl)isoxazol-4-yl)-1,3-dioxa-8-azaspiro[4.5]decan-8-yl)-4-fluorobenzo[d]thiazole-6-carboxylic acid] |
| 0.14 | O=C(NS(=O)(=O)C1CC1)c1cc(OC(F)F)c2cc(N3CCC4(C=C(c5c(-c6cccnc6C(F)(F)F)noc5C5CC5)C4)CC3)ccc2n1 [Example 191, 6-(2-(5-Cyclopropyl-3-(2-(trifluoromethyl)pyridin-3-yl)isoxazol-4-yl)-7-azaspiro[3.5]non-1-en-7-yl)-N-(cyclopropylsulfonyl)-4-(difluoromethoxy)quinoline-2-carboxamide] |
| 0.4 | O=C(O)c1cc(F)c2nc(N3CC4(C=C(c5c(-c6ccccc6C(F)(F)F)noc5C5CC5)C4)C3)sc2c1 [Example 34, 2-(6-(5-cyclopropyl-3-(2-(trifluoromethyl)phenyl)isoxazol-4-yl)-2-azaspiro[3.3]hept-5-en-2-yl)-4-fluorobenzo[d]thiazole-6-carboxylic acid] |
| 0.316 | O=C(O)c1cnc(N2CCC3(C=C(c4c(-c5c(Cl)cccc5Cl)noc4C4CC4)C3)CC2)nc1C(F)(F)F [Example 119, 2-(2-(5-Cyclopropyl-3-(2,6-dichlorophenyl)isoxazol-4-yl)-7-azaspiro[3.5]non-1-en-7-yl)-4-(trifluoromethyl)pyrimidine-5-carboxylic acid] |
| 0.132 | Cc1cc(N2CCC3(C=C(c4c(-c5c(Cl)cccc5Cl)noc4C4CC4)C3)CC2)ncc1C(=O)O [Example 115, 6-(2-(5-Cyclopropyl-3-(2,6-dichlorophenyl)isoxazol-4-yl)-7-azaspiro[3.5]non-1-en-7-yl)-4-methylnicotinic acid] |
| 0.381 | NS(=O)(=O)NC(=O)c1cc(F)c2nc(N3CCC4(C=C(c5c(-c6c(Cl)cncc6Cl)noc5C5CC5)C4)CC3)sc2c1 [Example 197, 2-(2-(5-Cyclopropyl-3-(3,5-dichloropyridin-4-yl)isoxazol-4-yl)-7-azaspiro[3.5]non-1-en-7-yl)-4-fluoro-N-sulfamoylbenzo[d]thiazole-6-carboxamide] |
| 4.47 | O=C(O)c1cccc(OC2CCC3(CC2)CC(O)(c2c(-c4c(Cl)cccc4Cl)noc2C2CC2)C3)c1 (stereo not drawn) [Example 207, 3-((2-(5-Cyclopropyl-3-(2,6-dichlorophenyl)isoxazol-4-yl)-2-hydroxyspiro[3.5]nonan-7-yl)oxy)benzoic acid] |
| 0.159 | O=C(O)c1cc(OCCO)c2cc(N3CCC4(C=C(c5c(-c6ccccc6C(F)(F)F)noc5C5CC5)C4)CC3)ccc2n1 [Example 143, 6-(2-(5-Cyclopropyl-3-(2-(trifluoromethyl)phenyl)isoxazol-4-yl)-7-azaspiro[3.5]non-1-en-7-yl)-4-(2-hydroxyethoxy)quinoline-2-carboxylic acid] |
| 0.116 | CCOc1cc(C(=O)O)nc2ccc(N3CCC4(C=C(c5c(-c6ccccc6OC(F)(F)F)noc5C5CC5)C4)CC3)cc12 [Example 113, 6-(2-(5-Cyclopropyl-3-(2-(trifluoromethoxy)phenyl)isoxazol-4-yl)-7-azaspiro[3.5]non-1-en-7-yl)-4-ethoxyquinoline-2-carboxylic acid] |
| 0.24 | O=C(O)c1cc(F)c2nc(N3CCC4(C=C(c5c(-c6c(Cl)cccc6Cl)noc5C5CC5)CO4)CC3)sc2c1 [Example 3, 2-(3-(5-Cyclopropyl-3-(2,6-dichlorophenyl)isoxazol-4-yl)-1-oxa-8-azaspiro[4.5]dec-3-en-8-yl)-4-fluorobenzo[d]thiazole-6-carboxylic acid] |
| 0.254 | O=C(O)c1cc2ccc(N3CCC4(C=C(c5c(-c6ccccc6C(F)(F)F)noc5C5CC5)C4)CC3)cc2cn1 [Example 159, 7-(2-(5-Cyclopropyl-3-(2-(trifluoromethyl)phenyl)isoxazol-4-yl)-7-azaspiro[3.5]non-1-en-7-yl)isoquinoline-3-carboxylic acid] |
| 0.01 | CCOc1cc(C(=O)O)nc2ccc(N3CCC4(C=C(c5c(-c6ccccc6C(F)(F)F)noc5C5CC5)C4)CC3)cc12 [Example 72, 6-(2-(5-Cyclopropyl-3-(2-(trifluoromethyl)phenyl)isoxazol-4-yl)-7-azaspiro[3.5]non-1-en-7-yl)-4-ethoxyquinoline-2-carboxylic acid] |
| 0.068 | O=C(O)c1cc(OC(F)F)c2cc(N3CCC4(C=C(c5c(-c6cccnc6C(F)(F)F)noc5C5CC5)C4)CC3)ccc2n1 [Example 77, 6-(2-(5-Cyclopropyl-3-(2-(trifluoromethyl)pyridin-3-yl)isoxazol-4-yl)-7-azaspiro[3.5]non-1-en-7-yl)-4-(difluoromethoxy)quinoline-2-carboxylic acid] |
| 0.047 | Cn1cc(C(=O)O)c2cnc(N3CCC4(C=C(c5c(-c6c(Cl)cccc6Cl)noc5C5CC5)C4)CC3)nc21 [Example 6, 2-(2-(5-Cyclopropyl-3-(2,6-dichlorophenyl)isoxazol-4-yl)-7-azaspiro[3.5]non-1-en-7-yl)-7-methyl-7H-pyrrolo[2,3-d]pyrimidine-5-carboxylic acid] |
| 0.121 | O=C(O)c1cnc2nc(N3CCC4(C=C(c5c(-c6c(Cl)cccc6Cl)noc5C5CC5)C4)CC3)sc2c1 [Example 177, 2-(2-(5-Cyclopropyl-3-(2,6-dichlorophenyl)isoxazol-4-yl)-7-azaspiro[3.5]non-1-en-7-yl)thiazolo[4,5-b]pyridine-6-carboxylic acid] |
| 0.142 | Cn1cc(C(=O)O)c2ccc(N3CCC4(C=C(c5c(-c6ccccc6C(F)(F)F)noc5C5CC5)C4)CC3)cc21 [Example 141, 6-(2-(5-Cyclopropyl-3-(2-(trifluoromethyl)phenyl)isoxazol-4-yl)-7-azaspiro[3.5]non-1-en-7-yl)-1-methyl-1H-indole-3-carboxylic acid] |
| 6.66 | O=C(O)c1ccc(OC2CCC3(CC2)CC(O)(c2c(-c4c(Cl)cccc4Cl)noc2C2CC2)C3)cc1 (stereo not drawn) [Example 208, 4-((2-(5-Cyclopropyl-3-(2,6-dichlorophenyl)isoxazol-4-yl)-2-hydroxyspiro[3.5]nonan-7-yl)oxy)benzoic acid] |
